# Structures can show the parent of a compound that is named as a salt. Where two headings read alike, the source gives them in different places.
# Legend:
# MAO-B enzyme = MAO-B enzyme (Homo sapiens (Human), UniProt P27338); experiment: Measurement of MAO-B inhibitory activity (MAO-Glo Assay); type: biochemical
# Experimental: The MAO-B inhibitory activity evaluation described below followed the protocol of MAO-Glo (registered trademark) Assay of Promega KK.
# A test compound dissolved in DMSO was added to a reaction solution (100 mM HEPES (pH 7.5), 5% glycerol, 10% DMSO) containing MAO-B enzyme (Sigma-Aldrich Co. LLC.), and the mixture was reacted at room temperature for 15 min. MAO substrate (Promega KK) was added to start the reaction. After reaction at room temperature for 60 min, Luciferine detection reagent (Promega KK) (50 μL) was added to terminate the reaction. After reaction at room temperature for 20 min with stirring, the luminescence was measured by Envision (PerkinElmer). The MAO-B inhibitory rate (%) of the test compound was calculated by the following formula. inhibitory rate (%)=(1−(test compound count−blank)÷(control−blank))×100
# The count of the MAO-B enzyme reaction mixture under compound non-addition conditions is indicated as control, and the count under compound non-addition and MAO-B enzyme non-addition conditions is indicated as blank.
# human LSD1(172-833) = human LSD1(172-833) (Homo sapiens (Human), UniProt O60341); experiment: Measurement of LSD1 inhibitory activity (time-resolved fluorescence, biotin-histone H3 mono methylated K4 peptide); type: biochemical; conditions: 60 min preincubation with enzyme at room temperature;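 further: after the compound–enzyme step, substrate reaction 5 min at room temperature in Tris-HCl pH 8.0 with BSA and DTT, halted by 2-PCPA, detected with europium anti-histone H3 antibody plus Streptavidin-XL665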
# Experimental: A test compound dissolved in DMSO was added by to a reaction solution (50 mM Tris-HCl (pH 8.0), 0.1% BSA, 1 mM DTT) containing LSD1 enzyme, and the mixture was reacted at room temperature for 60 min. […] After reaction at room temperature for 5 min, 2-PCPA solution was added to terminate the reaction. A detection solution (800 mM potassium fluoride, 0.1% BSA) containing europium-labeled anti-histone H3 antibody (Wako Pure Chemical Industries, Ltd.) and Streptavidin-XL665 (Cisbio) was further added, and the mixture was left standing for 60 min. […] The LSD1 inhibitory rate (%) of the test compound was calculated by the following formula. inhibitory rate (%)=(1−(test compound count−blank)÷(control−blank))×100
# The count of the LSD1 enzyme reaction mixture under compound non-addition conditions is indicated as control, and the count under compound non-addition and LSD1 enzyme non-addition conditions is indicated as blank. A concentration necessary for achieving 50% inhibitory rate was taken as ICH value.
# MAO-A enzyme = MAO-A enzyme (Homo sapiens (Human), UniProt P21397); experiment: Measurement of MAO-A inhibitory activity (MAO-Glo Assay); type: biochemical
# Sequence of MAO-A enzyme (P21397 whole entry): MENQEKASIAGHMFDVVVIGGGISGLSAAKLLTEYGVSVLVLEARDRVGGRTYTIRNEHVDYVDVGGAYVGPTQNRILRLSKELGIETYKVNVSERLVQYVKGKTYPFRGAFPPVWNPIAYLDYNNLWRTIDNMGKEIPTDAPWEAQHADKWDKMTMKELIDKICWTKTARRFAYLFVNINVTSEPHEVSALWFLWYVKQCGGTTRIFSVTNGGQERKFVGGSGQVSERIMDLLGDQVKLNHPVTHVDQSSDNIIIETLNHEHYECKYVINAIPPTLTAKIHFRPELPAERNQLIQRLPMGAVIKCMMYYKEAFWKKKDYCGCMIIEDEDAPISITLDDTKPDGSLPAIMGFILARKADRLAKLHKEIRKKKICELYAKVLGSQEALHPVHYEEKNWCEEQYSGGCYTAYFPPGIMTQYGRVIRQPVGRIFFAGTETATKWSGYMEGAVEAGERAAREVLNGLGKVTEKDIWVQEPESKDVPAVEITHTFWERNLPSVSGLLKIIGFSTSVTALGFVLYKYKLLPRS
# Experimental: The MAO-A inhibitory activity evaluation described below followed the protocol of MAO-Glo (registered trademark) Assay of Promega KK.
# A test compound dissolved in DMSO was added to a reaction solution (100 mM HEPES (pH 7.5), 5% glycerol) containing MAO-A enzyme (Sigma-Aldrich Co. LLC.), and the mixture was reacted at room temperature for 15 min. MAO substrate (Promega KK) was added to start the reaction. After reaction at room temperature for 60 min, Luciferine detection reagent (Promega KK) was added to terminate the reaction. After reaction at room temperature for 20 min with stirring, the luminescence was measured by Envision (PerkinElmer). The MAO-A inhibitory rate (%) of the test compound was calculated by the following formula. inhibitory rate (%)=(1−(test compound count−blank)÷(control−blank))×100
# The count of the MAO-A enzyme reaction mixture under compound non-addition conditions is indicated as control, and the count under compound non-addition and MAO-A enzyme non-addition conditions is indicated as blank.
# [1] = Evaluation of blood cell number in mouse; type: in vivo; conditions: male ICR mice, oral, repeated 7 or 9 days
# Experimental: All compounds were repeatedly administered to the mice at a dose of 1 mg/kg, 10 mg/kg or 100 mg/kg (body weight) for 7 or 9 days. One day after the final administration of the compound, the whole blood was collected.
# Using Sysmex XT-1800i (Sysmex Corporation), the white blood cell number, red blood cell number, and platelet number in the collected whole blood per unit volume were measured. The influence of each compound on each blood cell number was determined by calculating the number with the mean of each blood cell number of the mouse without administration of the compound (0 mg/kg group), and the mean of each blood cell number in the whole blood of a mouse with the administration of the compound.
# [2] = Evaluation of hippocampal distribution in mouse; type: in vivo; conditions: male, ICR, mouse, po, 10 mg/kg, male ICR mice, 10 mg/kg oral, 1 h after administration
# [3] = hippocampus, read-out: Concentration Hippocampus, Mean
# [4] = plasma, read-out: Concentration Plasma, Mean
# Sequence of MAO-B enzyme (P27338 whole entry): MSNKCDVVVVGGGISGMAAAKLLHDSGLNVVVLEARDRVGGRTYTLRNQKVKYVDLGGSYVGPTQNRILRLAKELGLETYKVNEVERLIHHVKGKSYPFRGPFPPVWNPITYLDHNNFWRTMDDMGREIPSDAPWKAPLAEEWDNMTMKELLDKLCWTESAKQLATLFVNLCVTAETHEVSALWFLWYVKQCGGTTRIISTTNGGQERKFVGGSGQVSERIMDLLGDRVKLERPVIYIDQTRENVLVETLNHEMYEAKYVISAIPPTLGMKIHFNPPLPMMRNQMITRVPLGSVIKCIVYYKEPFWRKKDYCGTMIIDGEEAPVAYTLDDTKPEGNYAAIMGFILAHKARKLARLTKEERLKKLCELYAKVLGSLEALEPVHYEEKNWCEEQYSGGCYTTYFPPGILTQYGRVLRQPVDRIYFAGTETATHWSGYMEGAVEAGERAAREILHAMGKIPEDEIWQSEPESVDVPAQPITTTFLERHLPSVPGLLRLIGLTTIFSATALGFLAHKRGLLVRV
smiles,measurement,setting,value
"O=C(NC1CC1)c1csc([C@@H]2C[C@H]2NCC2CCOCC2)c1 [Example 56, N-cyclopropyl-5-((1R,2R)-2-((tetrahydro-2H-pyran-4-ylmethyl)amino)cyclopropyl)thiophene-3-carboxamide hydrochloride]",IC50,MAO-B enzyme,> 100 µM
same,IC50,human LSD1(172-833),< 0.1 µM
same,IC50,MAO-A enzyme,> 100 µM
"Cc1nnc(NC(=O)c2csc([C@@H]3C[C@H]3NCC3CCN(CCC(=O)O)CC3)c2)s1 [Example 60, 3-(4-((((1R,2R)-2-(4-((5-methyl-1,3,4-thiadiazol-2-yl)carbamoyl)-2-thienyl)cyclopropyl)amino)methyl)piperidin-1-yl)propanoic acid trihydrochloride]",IC50,MAO-B enzyme,> 100 µM
same,IC50,human LSD1(172-833),< 0.1 µM
same,IC50,MAO-A enzyme,> 100 µM
"O=C(NC1CCOCC1)c1csc([C@@H]2C[C@H]2NCC2CC2)c1 [Example 71, 5-((1R,2R)-2-((cyclopropylmethyl)amino)cyclopropyl)-N-(tetrahydro-2H-pyran-4-yl)thiophene-3-carboxamide hydrochloride]","Platelets, Mean",[1]; 1 mg/kg,1178 10^3 cells
same,"Red blood cells, Mean",[1]; 1 mg/kg,873 10^4 cells
same,"White blood cells, Mean",[1]; 1 mg/kg,275 10 cells
same,"Platelets, Mean",[1]; 10 mg/kg,1197 10^3 cells
same,"Red blood cells, Mean",[1]; 10 mg/kg,817 10^4 cells
same,"White blood cells, Mean",[1]; 10 mg/kg,276 10 cells
same,"Platelets, Mean",[1]; 100 mg/kg,1322 10^3 cells
same,"Red blood cells, Mean",[1]; 100 mg/kg,853 10^4 cells
same,"White blood cells, Mean",[1]; 100 mg/kg,323 10 cells
same,concentration at 1 h,[2]; [3],82 ng/g
same,concentration at 1 h,[2]; [4],229 ng/mL
"Cc1nnc(NC(=O)c2cc([C@H]3C[C@@H]3NCC3CCOCC3)cs2)s1 [Example 74, N-(5-methyl-1,3,4-thiadiazol-2-yl)-4-((1R,2S)-2-((tetrahydro-2H-pyran-4-ylmethyl)amino)cyclopropyl)thiophene-2-carboxamide hydrochloride]",IC50,MAO-B enzyme,> 100 µM
same,IC50,human LSD1(172-833),< 0.1 µM
same,IC50,MAO-A enzyme,> 100 µM
"O=C(NC1CCC(F)(F)CC1)c1csc([C@@H]2C[C@H]2NC2CCN(C3CC3)CC2)c1 [Example 80, 5-((1R,2R)-2-((1-cyclopropylpiperidin-4-yl)amino)cyclopropyl)-N-(4,4-difluorocyclohexyl)thiophene-3-carboxamide hydrochloride]",IC50,MAO-B enzyme,> 100 µM
same,IC50,human LSD1(172-833),< 0.1 µM
same,IC50,MAO-A enzyme,> 100 µM
"Cc1cc(NC(=O)c2csc([C@@H]3C[C@H]3NCC3CCOCC3)c2)no1 [Example 81, N-(5-methyl-1,2-oxazol-3-yl)-5-((1R,2R)-2-((tetrahydro-2H-pyran-4-ylmethyl)amino)cyclopropyl)thiophene-3-carboxamide hydrochloride]",IC50,MAO-B enzyme,> 100 µM
same,IC50,human LSD1(172-833),< 0.1 µM
same,IC50,MAO-A enzyme,36 µM
"Cc1nnc(NC(=O)c2cc([C@@H]3C[C@H]3NCC3CC3)cs2)s1 [Example 82, 4-((1S,2R)-2-((cyclopropylmethyl)amino)cyclopropyl)-N-(5-methyl-1,3,4-thiadiazol-2-yl)thiophene-2-carboxamide dihydrochloride]","Platelets, Mean",[1]; 1 mg/kg,1399 10^3 cells
same,"Red blood cells, Mean",[1]; 1 mg/kg,899 10^4 cells
same,"White blood cells, Mean",[1]; 1 mg/kg,403 10 cells
same,"Platelets, Mean",[1]; 10 mg/kg,1445 10^3 cells
same,"Red blood cells, Mean",[1]; 10 mg/kg,926 10^4 cells
same,"White blood cells, Mean",[1]; 10 mg/kg,424 10 cells
same,"Platelets, Mean",[1]; 100 mg/kg,1411 10^3 cells
same,"Red blood cells, Mean",[1]; 100 mg/kg,903 10^4 cells
same,"White blood cells, Mean",[1]; 100 mg/kg,329 10 cells
same,concentration at 1 h,[2]; [3],170 ng/g
same,concentration at 1 h,[2]; [4],1330 ng/mL
"Cc1nnc(NC(=O)c2cc([C@@H]3C[C@H]3NC3CCC3)cs2)s1 [Example 84, 4-((1S,2R)-2-(cyclobutylamino)cyclopropyl)-N-(5-methyl-1,3,4-thiadiazol-2-yl)thiophene-2-carboxamide dihydrochloride]","Platelets, Mean","[1]; 1 mg/kg, dihydrochloride",1533 10^3 cells
same,"Red blood cells, Mean","[1]; 1 mg/kg, dihydrochloride",910 10^4 cells
same,"White blood cells, Mean","[1]; 1 mg/kg, dihydrochloride",370 10 cells
same,"Platelets, Mean","[1]; 10 mg/kg, dihydrochloride",1627 10^3 cells
same,"Red blood cells, Mean","[1]; 10 mg/kg, dihydrochloride",880 10^4 cells
same,"White blood cells, Mean","[1]; 10 mg/kg, dihydrochloride",339 10 cells
same,"Platelets, Mean","[1]; 100 mg/kg, dihydrochloride",1665 10^3 cells
same,"Red blood cells, Mean","[1]; 100 mg/kg, dihydrochloride",900 10^4 cells
same,"White blood cells, Mean","[1]; 100 mg/kg, dihydrochloride",313 10 cells
same,concentration at 1 h,[2]; [3],177 ng/g
same,Kp at 1 h,"[2]; hippocampus/plasma, read-out: Ratio (hippocampus/plasma), Mean",0.339
same,concentration at 1 h,[2]; [4],523 ng/mL
"CCn1cc(NC(=O)c2csc([C@@H]3C[C@H]3NCC3CCOCC3)c2)cn1 [Example 86, N-(1-ethyl-1H-pyrazol-4-yl)-5-((1R,2R)-2-((tetrahydro-2H-pyran-4-ylmethyl)amino)cyclopropyl)thiophene-3-carboxamide dihydrochloride]",IC50,MAO-B enzyme,> 100 µM
same,IC50,human LSD1(172-833),< 0.1 µM
same,IC50,MAO-A enzyme,87 µM
"CC(=O)N1CCC(N[C@@H]2C[C@H]2c2cc(C(=O)NC3CCC(F)(F)CC3)cs2)CC1 [Example 91, 5-((1R,2R)-2-((1-acetylpiperidin-4-yl)amino)cyclopropyl)-N-(4,4-difluorocyclohexyl)thiophene-3-carboxamide hydrochloride]",IC50,MAO-B enzyme,> 100 µM
same,IC50,human LSD1(172-833),< 0.1 µM
same,IC50,MAO-A enzyme,> 100 µM
"O=C(NC1CCC(F)(F)CC1)c1csc([C@@H]2C[C@H]2NC2CCN(C(=O)C3CC3)CC2)c1 [Example 92, 5-((1R,2R)-2-((1-(cyclopropylcarbonyl)piperidin-4-yl)amino)cyclopropyl)-N-(4,4-difluorocyclohexyl)thiophene-3-carboxamide hydrochloride]",IC50,MAO-B enzyme,> 100 µM
same,IC50,human LSD1(172-833),< 0.1 µM
same,IC50,MAO-A enzyme,> 100 µM
"Cc1nnc(NC(=O)c2cc([C@@H]3C[C@H]3NCC3CCOCC3)c(C)s2)s1 [Example 97, 5-methyl-N-(5-methyl-1,3,4-thiadiazol-2-yl)-4-((1S,2R)-2-((tetrahydro-2H-pyran-4-ylmethyl)amino)cyclopropyl)thiophene-2-carboxamide hydrochloride]","Platelets, Mean",[1]; 1 mg/kg,1462 10^3 cells
same,"Red blood cells, Mean",[1]; 1 mg/kg,902 10^4 cells
same,"White blood cells, Mean",[1]; 1 mg/kg,377 10 cells
same,"Platelets, Mean",[1]; 10 mg/kg,1483 10^3 cells
same,"Red blood cells, Mean",[1]; 10 mg/kg,890 10^4 cells
same,"White blood cells, Mean",[1]; 10 mg/kg,366 10 cells
same,"Platelets, Mean",[1]; 100 mg/kg,1533 10^3 cells
same,"Red blood cells, Mean",[1]; 100 mg/kg,929 10^4 cells
same,"White blood cells, Mean",[1]; 100 mg/kg,332 10 cells
same,concentration at 1 h,[2]; [3],194 ng/g
same,concentration at 1 h,[2]; [4],978 ng/mL
"O=C(O)c1ccc(CN2CCC(CN[C@@H]3C[C@H]3c3cc(C(=O)NC4CCC(F)(F)CC4)cs3)CC2)cc1 [Example 101, 4-((4-((((1R,2R)-2-(4-((4,4-difluorocyclohexyl)carbamoyl)-2-thienyl)cyclopropyl)amino)methyl)piperidin-1-yl)methyl)benzoic acid dihydrochloride]",IC50,MAO-B enzyme,> 100 µM
same,IC50,human LSD1(172-833),< 0.1 µM
same,IC50,MAO-A enzyme,> 100 µM
"O=C(O)c1ccc(CN[C@@H]2C[C@H]2c2cc(C(=O)NC3CCC(F)(F)CC3)cs2)cc1 [Example 110, 4-((((1R,2R)-2-(4-((4,4-difluorocyclohexyl)carbamoyl)-2-thienyl)cyclopropyl)amino)methyl)benzoic acid]",IC50,MAO-B enzyme,> 100 µM
same,IC50,human LSD1(172-833),< 0.1 µM
same,IC50,MAO-A enzyme,49 µM
"O=C(NC1CCOCC1)c1csc([C@@H]2C[C@H]2NCC2CCC2)c1 [Example 112, 5-((1R,2R)-2-((cyclobutylmethyl)amino)cyclopropyl)-N-(tetrahydro-2H-pyran-4-yl)thiophene-3-carboxamide]",IC50,MAO-B enzyme,> 100 µM
same,IC50,human LSD1(172-833),< 0.1 µM
same,IC50,MAO-A enzyme,> 100 µM

# Reference: patent publication US9487511B2, “Cyclopropanamine compound and use thereof” (Takeda Pharmaceutical Company Limited, priority 2014, dated 2016)
